Patent US5264589A, “Merocyanine protein error indicators” (Miles Inc., priority 1991, dated 1993)

Key:
[1] = pKa of the indicator compound; format: physicochemical
human serum albumin = human serum albumin (Homo sapiens, UniProt P02768); assay: Liquid assay for human serum albumin (increase in absorbance); conditions: albumin 100 mg/dl, 200-250 mM Na+ or K+ citrate buffer
Method: The utility of the merocyanine protein error indicator compounds of the present invention in a liquid assay for the determination of protein levels in a liquid test sample is illustrated in Table 7 below. […] The solution was then treated with sufficient human serum albumin to make the albumin concentration 100 mg/dl and the absorbance was measured again. The reported increase in absorbance (Δ abs) is proportional to the amount of albumin present, and is indicative of the relative sensitivity of the dye for measuring protein.

[2] = biological target: T1, human serum albumin (HSA) (Homo sapiens, UniProt P02768); assay: Dose response of reagent strips including SPDIB (K/S reflectance, Clinitek 200); conditions: analytical test strips including 0.3 mM SPDIB; 50 mM potassium citrate, pH 2.5; K/S at 25 seconds; FIG. 7
T1 construct: purchased Miles, Inc., Elkhart, Ind; (Pentex)
T1 sequence (P02768 25-609): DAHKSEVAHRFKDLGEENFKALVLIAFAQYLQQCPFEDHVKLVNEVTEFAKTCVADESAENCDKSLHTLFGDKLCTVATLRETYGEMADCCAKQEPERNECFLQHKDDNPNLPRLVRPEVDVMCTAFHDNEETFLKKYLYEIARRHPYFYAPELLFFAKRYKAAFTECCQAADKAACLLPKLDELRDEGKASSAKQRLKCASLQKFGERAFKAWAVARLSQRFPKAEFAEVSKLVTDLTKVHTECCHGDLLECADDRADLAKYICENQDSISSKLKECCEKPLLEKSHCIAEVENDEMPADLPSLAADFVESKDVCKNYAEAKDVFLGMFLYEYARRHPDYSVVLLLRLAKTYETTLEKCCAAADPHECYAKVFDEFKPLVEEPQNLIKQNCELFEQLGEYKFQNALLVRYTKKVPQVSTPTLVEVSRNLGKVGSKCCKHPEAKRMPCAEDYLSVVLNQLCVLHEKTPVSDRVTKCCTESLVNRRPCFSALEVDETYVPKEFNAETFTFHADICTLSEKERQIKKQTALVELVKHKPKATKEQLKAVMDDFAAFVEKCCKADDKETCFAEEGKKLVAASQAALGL
Method: A buffered liquid sample (50 mM potassium citrate, pH 2.5) which was shown by immunoassay to be devoid of albumin, was spiked to various clinically significant levels with Pentex® human serum albumin (HSA) (Miles, Inc., Elkhart, Ind.). Using a Clinitek 200® Instrument (Miles, Inc., Elkhart, Ind.) protein measurements were made using analytical test strips including 0.3 mM SPDIB.
Resolution was quantitatively expressed in delta K/S between albumin levels, as shown FIG. 7. K/S are calculated from the formula: [formula] wherein R is the fraction of reflectance from the test device, K is a constant, and S is the light scattering coefficient of the particular reflecting medium. The above equation is a simplified form of the well-known Kubelka-Munk equation (See Gustav Kortum, "Reflectance Spectroscopy," pp. 106-11, Springer Verlas, New York (1969). K/S was determined at 25 seconds.

Sequence of human serum albumin (P02768 25-609): as above

Structure (SMILES): CC1(C)C(C=Cc2cc(Br)c(O)c(Br)c2)=[N+](CCCS(=O)(=O)[O-])c2ccccc21 [Compound A, 1-(ω-sulfopropyl)-2-(4'hydroxy-3',5'-dibromostyryl)-3,3-dimethylindoleninium betaine]
- COMPD. pKa [1]: 3.59
- ΔABS (increase in absorbance) (human serum albumin; compound conc. 1.0 × 10^-5 M, assay pH 3.0, λ 522 nm): 0.156

Structure (SMILES): O=S(=O)([O-])CCCC[n+]1c(C=Cc2cc(I)c(O)c(I)c2)sc2ccccc21 [Compound B, 1-(ω-sulfobutyl)-2-(4'-hydroxy-3',5'-diiodostyryl)-benzothiazolium betaine]
- COMPD. pKa [1]: 4.35
- ΔABS (increase in absorbance) (human serum albumin; compound conc. 2.5 × 10^-5 M, assay pH 3.5, λ 506 nm): 0.027

Structure (SMILES): CC1(C)C(C=Cc2cc(I)c(O)c(I)c2)=[N+](CCCCS(=O)(=O)[O-])c2ccccc21 [Compound E, 1-(ω-sulfobutyl)-2-(4'-hydroxy-3',5'-diiodostyryl)-3,3-dimethylindoleninium betaine]
- COMPD. pKa [1]: 3.52
- ΔABS (increase in absorbance) (human serum albumin; compound conc. 1.8 × 10^-5 M, assay pH 3.0, λ 535 nm): 0.322

Structure (SMILES): CC1(C)C(C=Cc2cc(I)c(O)c(I)c2)=[N+](CCCS(=O)(=O)[O-])c2ccccc21 [Compound D, 1-(ω-sulfopropyl)-2-(4'-hydroxy-3'-5'-diiodostyryl)-3,3-dimethylindoleninium betaine]
- COMPD. pKa [1]: 3.65
- ΔABS (increase in absorbance) (human serum albumin; compound conc. 2.0 × 10^-5 M, assay pH 3.0, λ 541 nm): 0.402
- resolution between protein levels (delta K/S) [2]: significant resolution between protein levels
- response of the strip to different levels of protein [2]: sensitive to a wide range of protein concentrations

Structure (SMILES): CC1(C)C(C=Cc2cc(I)c(O)c(I)c2)=[N+](CCS(=O)(=O)[O-])c2ccccc21 [Compound C, 1-(ω-sulfoethyl)-2-(4'-hydroxy-3',5'-diiodostyryl)-3,3-dimethylindoleninium betaine]
- COMPD. pKa [1]: 3.65
- ΔABS (increase in absorbance) (human serum albumin; compound conc. 1.5 × 10^-5 M, assay pH 3.0, λ 543 nm): 0.255
